Values belong to the molecule of their own block, whether it stands above or below them.
Tests used:
[1] = molecular target: T1, Serine/threonine-protein kinase Chk1 (Homo sapiens) (UniProt O14757); experiment: Inhibition of human recombinant CHK1 at 500 nM related to control ULK1
T1 sequence (whole entry): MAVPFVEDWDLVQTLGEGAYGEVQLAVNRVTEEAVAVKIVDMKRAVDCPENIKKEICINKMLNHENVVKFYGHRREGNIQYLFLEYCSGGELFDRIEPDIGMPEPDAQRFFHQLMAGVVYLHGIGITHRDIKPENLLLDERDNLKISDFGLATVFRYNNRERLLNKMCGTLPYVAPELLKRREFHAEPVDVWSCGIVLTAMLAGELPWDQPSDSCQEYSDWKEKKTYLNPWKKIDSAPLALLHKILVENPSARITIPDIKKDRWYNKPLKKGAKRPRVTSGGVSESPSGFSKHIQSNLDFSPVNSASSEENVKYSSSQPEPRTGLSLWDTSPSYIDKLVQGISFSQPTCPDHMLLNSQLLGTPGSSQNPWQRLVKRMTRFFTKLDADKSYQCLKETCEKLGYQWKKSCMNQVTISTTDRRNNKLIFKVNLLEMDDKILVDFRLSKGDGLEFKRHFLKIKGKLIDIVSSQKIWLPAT

[2] = molecular target: G protein-coupled receptor kinase 6 (Homo sapiens) (UniProt P43250); experiment: Inhibition of human recombinant GPRK6 at 500 nM related to control ULK1
[3] = molecular target: Protein kinase C alpha type (Homo sapiens) (UniProt P17252); experiment: Inhibition of human recombinant PKCa at 500 nM related to control ULK1
[4] = molecular target: Serine/threonine-protein kinase PRP4 homolog (Homo sapiens) (UniProt Q13523); experiment: Inhibition of human recombinant PRP4 at 500 nM related to control ULK1
[5] = molecular target: Serine/threonine-protein kinase tousled-like 2 (Homo sapiens) (UniProt Q86UE8); experiment: Inhibition of human recombinant TLK2 at 15 nM in presence of ATP by radiometric assay relative to control
[6] = molecular target: T2, Receptor-interacting serine/threonine-protein kinase 1 (Homo sapiens) (UniProt Q13546); experiment: Inhibition of human recombinant RIPK1 at 15 nM related to control ULK1
T2 sequence (whole entry): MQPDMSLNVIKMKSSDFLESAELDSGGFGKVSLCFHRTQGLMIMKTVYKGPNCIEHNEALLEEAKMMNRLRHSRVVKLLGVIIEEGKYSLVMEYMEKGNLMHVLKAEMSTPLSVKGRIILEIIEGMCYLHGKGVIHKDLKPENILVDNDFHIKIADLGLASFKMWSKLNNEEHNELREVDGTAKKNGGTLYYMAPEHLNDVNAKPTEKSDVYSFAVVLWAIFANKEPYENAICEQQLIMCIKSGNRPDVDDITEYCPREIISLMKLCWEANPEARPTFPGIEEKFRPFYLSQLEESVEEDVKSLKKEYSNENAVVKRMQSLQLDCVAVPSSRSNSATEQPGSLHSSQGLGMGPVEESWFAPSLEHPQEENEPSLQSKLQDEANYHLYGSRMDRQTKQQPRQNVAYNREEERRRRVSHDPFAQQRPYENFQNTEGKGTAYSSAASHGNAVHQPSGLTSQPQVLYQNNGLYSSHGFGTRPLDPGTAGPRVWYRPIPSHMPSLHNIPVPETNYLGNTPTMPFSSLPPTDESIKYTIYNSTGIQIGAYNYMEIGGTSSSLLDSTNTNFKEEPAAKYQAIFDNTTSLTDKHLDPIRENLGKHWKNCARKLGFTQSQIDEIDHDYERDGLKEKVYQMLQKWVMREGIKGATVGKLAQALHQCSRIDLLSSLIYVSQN

[7] = molecular target: Tau-tubulin kinase 1 (Homo sapiens) (UniProt Q5TCY1); experiment: Inhibition of human recombinant TTBK1 at 15 nM related to control ULK1
[8] = molecular target: Calcium/calmodulin-dependent protein kinase type 1 (Homo sapiens) (UniProt Q14012); experiment: Inhibition of human recombinant CaMK1a at 40 nM in presence of ATP by radiometric assay relative to control
[9] = molecular target: Serine/threonine-protein kinase/endoribonuclease IRE1 (Homo sapiens) (UniProt O75460); experiment: Inhibition of human recombinant IRE1 at 40 nM in presence of ATP by radiometric assay relative to control
[10] = molecular target: T3, Serine/threonine-protein kinase BRSK1 (Homo sapiens) (UniProt Q8TDC3); experiment: Inhibition of human recombinant BRSK1 at 40 nM related to control ULK1
T3 sequence (whole entry): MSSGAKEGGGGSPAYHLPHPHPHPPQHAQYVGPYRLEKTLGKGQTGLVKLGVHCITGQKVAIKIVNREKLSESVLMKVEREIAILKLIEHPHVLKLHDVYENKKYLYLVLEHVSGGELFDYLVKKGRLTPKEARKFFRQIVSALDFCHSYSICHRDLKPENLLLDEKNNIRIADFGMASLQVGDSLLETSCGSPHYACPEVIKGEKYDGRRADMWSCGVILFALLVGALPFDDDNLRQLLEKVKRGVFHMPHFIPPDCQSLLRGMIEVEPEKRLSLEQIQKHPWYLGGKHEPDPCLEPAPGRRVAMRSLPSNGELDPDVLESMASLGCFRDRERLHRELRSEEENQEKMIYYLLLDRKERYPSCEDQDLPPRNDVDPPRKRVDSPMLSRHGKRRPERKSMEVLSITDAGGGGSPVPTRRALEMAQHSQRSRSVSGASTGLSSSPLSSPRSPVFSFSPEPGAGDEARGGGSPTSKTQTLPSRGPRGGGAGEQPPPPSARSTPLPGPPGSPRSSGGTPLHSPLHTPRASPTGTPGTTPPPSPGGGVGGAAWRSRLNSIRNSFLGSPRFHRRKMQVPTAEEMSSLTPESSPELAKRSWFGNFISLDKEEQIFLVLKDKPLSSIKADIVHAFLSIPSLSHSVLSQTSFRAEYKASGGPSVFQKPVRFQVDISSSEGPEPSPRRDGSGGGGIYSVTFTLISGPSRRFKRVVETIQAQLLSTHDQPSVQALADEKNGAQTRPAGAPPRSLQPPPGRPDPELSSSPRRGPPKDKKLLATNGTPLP

[11] = molecular target: Tyrosine-protein kinase JAK1 (Homo sapiens) (UniProt P23458); experiment: Inhibition of human recombinant JAK1 at 40 nM related to control ULK1
Tyrosine-protein kinase JAK1 (Homo sapiens), sequence (P23458 whole entry): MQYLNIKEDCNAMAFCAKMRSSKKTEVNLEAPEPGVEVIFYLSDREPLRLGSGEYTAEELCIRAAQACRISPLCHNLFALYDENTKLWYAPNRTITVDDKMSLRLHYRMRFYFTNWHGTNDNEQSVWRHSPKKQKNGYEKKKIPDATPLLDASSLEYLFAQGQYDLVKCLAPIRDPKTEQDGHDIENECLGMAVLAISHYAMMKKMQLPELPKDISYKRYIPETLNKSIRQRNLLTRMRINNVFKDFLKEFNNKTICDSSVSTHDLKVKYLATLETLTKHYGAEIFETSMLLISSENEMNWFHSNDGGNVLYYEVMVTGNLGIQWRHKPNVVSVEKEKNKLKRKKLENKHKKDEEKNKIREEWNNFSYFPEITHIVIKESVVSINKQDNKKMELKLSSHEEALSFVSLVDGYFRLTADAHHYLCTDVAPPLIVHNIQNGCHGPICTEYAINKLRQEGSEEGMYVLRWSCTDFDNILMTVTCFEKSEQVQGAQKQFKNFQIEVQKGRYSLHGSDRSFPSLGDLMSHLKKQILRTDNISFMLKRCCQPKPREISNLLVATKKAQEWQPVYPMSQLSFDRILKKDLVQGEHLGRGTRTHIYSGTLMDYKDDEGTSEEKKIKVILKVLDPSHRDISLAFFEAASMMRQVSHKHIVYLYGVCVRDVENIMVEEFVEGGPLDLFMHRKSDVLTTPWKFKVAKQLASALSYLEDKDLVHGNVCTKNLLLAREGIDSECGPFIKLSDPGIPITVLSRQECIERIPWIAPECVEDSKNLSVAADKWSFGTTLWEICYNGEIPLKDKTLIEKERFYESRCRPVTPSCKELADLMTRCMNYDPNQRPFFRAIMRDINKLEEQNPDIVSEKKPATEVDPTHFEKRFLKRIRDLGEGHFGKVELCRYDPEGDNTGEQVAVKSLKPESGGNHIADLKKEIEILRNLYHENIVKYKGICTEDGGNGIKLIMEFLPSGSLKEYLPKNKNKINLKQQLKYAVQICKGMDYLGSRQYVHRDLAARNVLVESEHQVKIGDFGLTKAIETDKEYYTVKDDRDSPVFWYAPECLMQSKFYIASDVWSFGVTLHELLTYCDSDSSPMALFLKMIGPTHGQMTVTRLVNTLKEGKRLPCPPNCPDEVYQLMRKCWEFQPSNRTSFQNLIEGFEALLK

Serine/threonine-protein kinase/endoribonuclease IRE1 (Homo sapiens), sequence (O75460 19-977 limits assumed): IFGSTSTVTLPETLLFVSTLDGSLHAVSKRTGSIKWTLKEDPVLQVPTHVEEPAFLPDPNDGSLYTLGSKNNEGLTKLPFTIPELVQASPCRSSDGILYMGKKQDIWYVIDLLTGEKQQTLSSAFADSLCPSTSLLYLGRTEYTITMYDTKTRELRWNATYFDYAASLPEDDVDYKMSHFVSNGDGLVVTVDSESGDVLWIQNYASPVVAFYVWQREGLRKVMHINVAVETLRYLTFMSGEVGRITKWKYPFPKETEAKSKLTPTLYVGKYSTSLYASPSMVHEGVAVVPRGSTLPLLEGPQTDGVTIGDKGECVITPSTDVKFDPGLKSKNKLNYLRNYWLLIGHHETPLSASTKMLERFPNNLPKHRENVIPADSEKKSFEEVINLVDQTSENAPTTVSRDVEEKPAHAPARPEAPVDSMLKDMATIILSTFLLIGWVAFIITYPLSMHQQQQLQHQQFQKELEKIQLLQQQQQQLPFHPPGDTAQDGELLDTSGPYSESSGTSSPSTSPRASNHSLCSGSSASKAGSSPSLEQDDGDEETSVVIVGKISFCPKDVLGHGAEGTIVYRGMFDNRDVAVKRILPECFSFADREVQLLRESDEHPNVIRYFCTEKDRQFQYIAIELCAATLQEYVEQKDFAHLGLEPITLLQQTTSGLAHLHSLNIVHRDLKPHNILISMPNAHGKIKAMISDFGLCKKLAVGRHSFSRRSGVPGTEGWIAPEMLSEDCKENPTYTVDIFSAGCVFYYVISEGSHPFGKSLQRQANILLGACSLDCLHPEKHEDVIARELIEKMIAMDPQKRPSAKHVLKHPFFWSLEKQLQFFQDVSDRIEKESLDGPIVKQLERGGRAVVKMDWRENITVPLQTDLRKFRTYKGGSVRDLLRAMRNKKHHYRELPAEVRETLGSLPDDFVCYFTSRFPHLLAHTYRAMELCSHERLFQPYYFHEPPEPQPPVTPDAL
Serine/threonine-protein kinase tousled-like 2 (Homo sapiens), sequence (Q86UE8 whole entry, looked up): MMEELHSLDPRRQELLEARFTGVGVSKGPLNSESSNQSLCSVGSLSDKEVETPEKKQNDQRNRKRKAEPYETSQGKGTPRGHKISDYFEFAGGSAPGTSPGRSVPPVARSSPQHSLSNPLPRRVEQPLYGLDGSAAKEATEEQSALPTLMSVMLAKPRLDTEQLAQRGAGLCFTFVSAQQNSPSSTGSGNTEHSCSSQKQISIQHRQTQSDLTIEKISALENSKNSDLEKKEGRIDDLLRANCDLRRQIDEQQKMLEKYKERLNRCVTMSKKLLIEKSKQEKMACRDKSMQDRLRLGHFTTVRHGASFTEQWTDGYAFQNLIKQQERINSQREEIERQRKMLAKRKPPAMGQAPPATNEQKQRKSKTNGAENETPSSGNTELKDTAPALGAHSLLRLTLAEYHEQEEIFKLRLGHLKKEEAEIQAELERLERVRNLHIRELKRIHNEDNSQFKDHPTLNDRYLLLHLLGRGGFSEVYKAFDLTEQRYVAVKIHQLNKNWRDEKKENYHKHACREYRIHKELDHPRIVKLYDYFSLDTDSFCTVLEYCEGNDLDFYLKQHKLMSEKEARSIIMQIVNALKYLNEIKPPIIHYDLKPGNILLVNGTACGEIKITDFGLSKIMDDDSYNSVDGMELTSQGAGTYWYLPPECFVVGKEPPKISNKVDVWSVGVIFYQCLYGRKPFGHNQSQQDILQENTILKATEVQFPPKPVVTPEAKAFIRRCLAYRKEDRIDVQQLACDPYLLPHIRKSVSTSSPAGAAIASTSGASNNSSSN
Calcium/calmodulin-dependent protein kinase type 1 (Homo sapiens), sequence (Q14012 whole entry, looked up): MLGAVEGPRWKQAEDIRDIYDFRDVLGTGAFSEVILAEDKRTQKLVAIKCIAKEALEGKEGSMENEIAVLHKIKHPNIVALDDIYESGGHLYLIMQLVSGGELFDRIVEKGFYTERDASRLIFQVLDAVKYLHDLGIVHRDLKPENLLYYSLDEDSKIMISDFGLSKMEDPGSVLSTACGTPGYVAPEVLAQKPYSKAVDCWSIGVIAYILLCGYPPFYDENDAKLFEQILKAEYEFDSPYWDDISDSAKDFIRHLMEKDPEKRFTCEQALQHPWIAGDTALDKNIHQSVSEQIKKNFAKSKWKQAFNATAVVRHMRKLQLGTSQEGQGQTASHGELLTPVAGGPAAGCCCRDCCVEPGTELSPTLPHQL
Serine/threonine-protein kinase PRP4 homolog (Homo sapiens), sequence (Q13523 whole entry): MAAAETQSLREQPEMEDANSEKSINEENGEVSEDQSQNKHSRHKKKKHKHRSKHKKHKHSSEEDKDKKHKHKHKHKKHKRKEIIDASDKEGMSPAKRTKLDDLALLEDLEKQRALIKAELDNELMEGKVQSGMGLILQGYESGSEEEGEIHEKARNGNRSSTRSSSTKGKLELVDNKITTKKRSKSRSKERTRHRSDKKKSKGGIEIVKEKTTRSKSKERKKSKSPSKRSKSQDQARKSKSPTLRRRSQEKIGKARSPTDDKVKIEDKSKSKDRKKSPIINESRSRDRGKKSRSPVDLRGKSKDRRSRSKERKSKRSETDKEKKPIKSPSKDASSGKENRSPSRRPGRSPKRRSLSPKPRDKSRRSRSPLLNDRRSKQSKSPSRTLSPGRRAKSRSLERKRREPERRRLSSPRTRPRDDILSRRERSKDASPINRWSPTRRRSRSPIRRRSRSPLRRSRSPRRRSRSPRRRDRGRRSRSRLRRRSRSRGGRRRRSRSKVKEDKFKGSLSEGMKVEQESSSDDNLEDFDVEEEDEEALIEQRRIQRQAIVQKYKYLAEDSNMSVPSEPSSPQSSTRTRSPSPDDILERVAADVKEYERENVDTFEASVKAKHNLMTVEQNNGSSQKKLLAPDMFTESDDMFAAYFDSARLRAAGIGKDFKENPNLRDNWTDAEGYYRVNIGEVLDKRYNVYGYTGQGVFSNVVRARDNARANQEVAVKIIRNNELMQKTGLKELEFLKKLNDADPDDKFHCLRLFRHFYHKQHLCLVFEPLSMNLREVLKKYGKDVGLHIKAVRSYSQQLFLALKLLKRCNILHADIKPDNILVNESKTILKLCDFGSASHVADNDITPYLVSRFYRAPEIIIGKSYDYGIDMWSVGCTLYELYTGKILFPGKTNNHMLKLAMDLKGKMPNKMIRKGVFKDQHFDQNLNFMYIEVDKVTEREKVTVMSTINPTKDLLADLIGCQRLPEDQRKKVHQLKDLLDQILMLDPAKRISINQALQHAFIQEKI
G protein-coupled receptor kinase 6 (Homo sapiens), sequence (P43250 whole entry, looked up): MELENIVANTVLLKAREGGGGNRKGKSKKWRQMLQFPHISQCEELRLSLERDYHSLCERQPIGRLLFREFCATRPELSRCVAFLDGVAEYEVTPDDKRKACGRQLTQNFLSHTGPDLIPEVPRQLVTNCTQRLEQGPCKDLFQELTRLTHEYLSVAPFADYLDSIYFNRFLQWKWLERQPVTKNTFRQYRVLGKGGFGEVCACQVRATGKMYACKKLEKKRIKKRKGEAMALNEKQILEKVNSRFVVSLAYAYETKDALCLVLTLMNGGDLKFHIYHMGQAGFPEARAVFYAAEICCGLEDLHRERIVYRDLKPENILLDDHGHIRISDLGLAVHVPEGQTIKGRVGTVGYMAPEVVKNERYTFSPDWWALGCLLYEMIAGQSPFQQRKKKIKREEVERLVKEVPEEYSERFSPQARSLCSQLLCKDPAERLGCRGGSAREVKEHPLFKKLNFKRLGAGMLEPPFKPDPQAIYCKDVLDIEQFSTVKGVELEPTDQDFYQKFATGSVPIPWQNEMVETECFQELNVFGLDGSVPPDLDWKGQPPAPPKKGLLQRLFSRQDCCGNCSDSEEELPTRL

fold change (FC) [1]: 0.05
fold change (FC) [2]: 0.16
fold change (FC) [3]: 0
fold change (FC) [4]: 0.03
SMILES: CNC(=O)c1ccccc1Oc1nc(Nc2cc(OC)c(OC)c(OC)c2)ncc1Br

inhibition [5]: 3%
fold change (FC) [6]: 0.01
fold change (FC) [7]: 0
SMILES: CC(C)[C@H](NC(=O)c1cc(-c2cnn3cc(-c4ccc(OCCN5CCCCC5)cc4)cnc23)cs1)C(F)(F)F

inhibition [8]: 0%
inhibition [9]: 0%
fold change (FC) [10]: 0.03
fold change (FC) [11]: 0
SMILES: O=C(N[C@@H](C1CC1)C(F)(F)F)c1cc(-c2cnn3cc(-c4ccc(F)cc4)cnc23)cs1
